Reference: publication PMC7509035, “[^68Ga]ABY-028: an albumin-binding domain (ABD) protein-based imaging tracer for positron emission tomography (PET) studies of altered vascular permeability and predictions of albumin-drug conjugate transport” (EJNMMI Research, 2020)
“Also recorded” adds a separate entry of the source.

Legend:
[1] = tested on: FaDu xenografts; assay: Longitudinal dual tracer PET in two FaDu xenografts; assay type: in vivo, human tumor xenograft in NIH-Foxn1mu rat; settings: rat, [^18F]FDG
Experimental: (§1) A431 (human epidermoid carcinoma) and FaDu (human squamous carcinoma of the hypopharynx) cell lines were purchased from American Type Culture Collection (ATCC). The cells were cultured in Dulbecco’s Modified Eagle’s Medium (4500 mg/L D-glucose containing L-glutamine) and were maintained at 37 °C in a humidified atmosphere, containing 5% CO2. All media were additionally supplemented with 1 mM sodium pyruvate, 100 units penicillin/mL, 100 μg streptomycin/mL, and 10% fetal bovine serum (Gibco). Media for FaDu cells were further supplemented with 0.1 mM non-essential amino acids and 2 mM HEPES. The integrity of the cell lines was verified with short tandem repeat profiling cell authentication analysis (LGC Standards).
(§2) Rodents were anaesthetized (1.5% isoflurane (Virbac, Carros Cedex, France) blended with air (7:3) in a vaporizer (E-Z systems) delivered through a Microflex non-rebreather mask (Euthanex Corp)) and then i.v. injected (tail vein) with the radiotracer. PET imaging was performed using a microPET Focus 120 (CTI Concorde Microsystems, Knoxville, TN, USA). Data were acquired in list mode and reconstructed using Filtered Back Projection for the constant bed motion (CBM) scans or, to increase the spatial resolution in the dynamic scans, Ordered Subset […] in 2 dimensions, 4 iterations, and 16 subsets. Data, normalized and corrected for randoms, dead time, and radioactivity decay, were processed using MicroPET Manager and evaluated using the Inveon Research Workplace (IRW) software (Siemens Medical Systems, Malvern, PA, USA). The ROI selections were based on the PET images and the radioactivity in ROIs was calculated as mean or maximum standard uptake values (SUVmean or SUVmax) normalized to body weight. Blood ROIs were delineated on the left ventricle of the heart in the first frames of the scan. Liver ROIs were drawn on one lobe. Muscle ROIs were drawn on the front (rat) and hind (mouse) leg muscle on the images summed over the entire scan. […] Growth of the tumor xenografts was monitored by caliper measurements. […]

[2] = tested on: A431 xenografts; assay: PET uptake in A431 xenografts after nitroglycerin (NG) ointment; assay type: in vivo, human tumor xenograft in NIH-Foxn1mu rat; settings: NG ointment 1 mg/tumor cutaneous, [^68Ga]ABY-028 uptake
Experimental: as §1, §2

| SMILES | increase of uptake between early and late imaging, day 0 ([1]; both FaDu tumors, 50 to 160 min, day 0) | increase of uptake between early and late imaging, day 3 ([1]; both FaDu tumors, 50 to 160 min, day 3) | decrease of SUV in tumor center, left tumor, day 3 ([1]; left FaDu tumor, area in center extending to one edge, both time points) | effect of NG on tracer radioactivity in A431 xenografts [2] | effect of NG on tracer radioactivity in A431 xenografts ([2]; listed as NG) | effect of NG on tracer radioactivity in A431 xenografts ([2]; listed as Nitroglycerin (NG)) |
| --- | --- | --- | --- | --- | --- | --- |
| O=C[C@H]([18F])[C@@H](O)[C@H](O)[C@H](O)CO [[^18F]FDG, [2-^18F]-2-Fluoro-2-deoxy-D-glucose] | approximately 20% | ~35% | approximately 30% |  |  |  |
| O=[N+]([O-])OCC(CO[N+](=O)[O-])O[N+](=O)[O-] [nitroglycerin, glyceryltrinitrate] |  |  |  | increased radioactivity in the A431 xenografts | A more rapid increase in focal radioactivity levels; also recorded: increased uptake of albumin-bound [^68Ga]ABY-028 | NG-induced changes are revealed by the SUVmax |
